Results as given in patent US9321776B2, “Isochromene derivatives as phoshoinositide 3-kinases inhibitors” (CHIESI FARMACEUTICI S.p.A., priority 2013, dated 2016).
Counter-ions that a name gives are not always drawn. Values belong to the molecule of their own block, whether it stands above or below them.

Tests used:
Test in all cases: PI3K enzyme inhibitory activity in the cell free assay (ADP-Glo Kinase Assay)
Format in all cases: biochemical
PI3Kδ = biological target: T1, PI3Kδ (Homo sapiens, UniProt O00329); details: human recombinant PI3Kδ, ATP 80 μM; read-out: PI3K delta inhibition
T1 construct: purchased Millipore Ltd (Billerica, Mass.)
T1 sequence (O00329 1-1044): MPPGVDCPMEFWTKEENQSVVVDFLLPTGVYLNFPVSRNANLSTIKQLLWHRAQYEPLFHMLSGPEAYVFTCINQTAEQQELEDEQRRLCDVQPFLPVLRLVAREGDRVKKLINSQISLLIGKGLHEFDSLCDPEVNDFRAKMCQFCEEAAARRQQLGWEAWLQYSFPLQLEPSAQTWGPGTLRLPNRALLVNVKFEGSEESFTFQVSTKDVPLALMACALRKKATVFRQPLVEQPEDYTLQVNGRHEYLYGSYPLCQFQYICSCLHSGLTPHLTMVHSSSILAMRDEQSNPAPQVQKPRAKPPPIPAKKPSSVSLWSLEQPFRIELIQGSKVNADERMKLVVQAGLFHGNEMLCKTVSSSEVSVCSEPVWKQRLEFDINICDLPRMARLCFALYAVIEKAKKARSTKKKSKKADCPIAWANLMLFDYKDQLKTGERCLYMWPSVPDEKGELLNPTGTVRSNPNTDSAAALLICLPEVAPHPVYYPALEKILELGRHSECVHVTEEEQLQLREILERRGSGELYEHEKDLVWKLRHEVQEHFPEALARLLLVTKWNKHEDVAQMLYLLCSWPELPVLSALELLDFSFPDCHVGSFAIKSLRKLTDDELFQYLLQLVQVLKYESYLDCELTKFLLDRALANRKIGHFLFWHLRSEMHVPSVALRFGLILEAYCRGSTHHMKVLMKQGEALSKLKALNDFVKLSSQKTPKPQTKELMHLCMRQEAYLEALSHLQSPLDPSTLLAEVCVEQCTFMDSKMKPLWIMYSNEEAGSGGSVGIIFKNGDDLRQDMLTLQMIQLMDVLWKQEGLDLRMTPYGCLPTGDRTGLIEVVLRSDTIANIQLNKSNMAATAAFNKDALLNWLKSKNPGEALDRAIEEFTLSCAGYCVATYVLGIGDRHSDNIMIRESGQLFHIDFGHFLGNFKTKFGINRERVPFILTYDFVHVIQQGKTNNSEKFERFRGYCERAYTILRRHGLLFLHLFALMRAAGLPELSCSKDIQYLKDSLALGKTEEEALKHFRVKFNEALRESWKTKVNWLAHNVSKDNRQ

PI3Kβ = biological target: T2, PI3Kβ (Homo sapiens, UniProt P42338); details: human recombinant PI3Kβ, ATP 100 μM; read-out: PI3K beta inhibition
T2 construct: purchased Millipore Ltd (Billerica, Mass.)

PI3Kα = biological target: T3, PI3Kα (Homo sapiens, UniProt P42336); details: human recombinant PI3Kα, ATP 50 μM; read-out: PI3K alpha inhibition
T3 construct: purchased Millipore Ltd (Billerica, Mass.)

PI3Kγ = biological target: T4, PI3Kγ (Homo sapiens, UniProt P48736); details: human recombinant PI3Kγ, ATP 30 μM; read-out: PI3K gamma inhibition
T4 construct: purchased Millipore Ltd (Billerica, Mass.)
T4 sequence (P48736 whole entry): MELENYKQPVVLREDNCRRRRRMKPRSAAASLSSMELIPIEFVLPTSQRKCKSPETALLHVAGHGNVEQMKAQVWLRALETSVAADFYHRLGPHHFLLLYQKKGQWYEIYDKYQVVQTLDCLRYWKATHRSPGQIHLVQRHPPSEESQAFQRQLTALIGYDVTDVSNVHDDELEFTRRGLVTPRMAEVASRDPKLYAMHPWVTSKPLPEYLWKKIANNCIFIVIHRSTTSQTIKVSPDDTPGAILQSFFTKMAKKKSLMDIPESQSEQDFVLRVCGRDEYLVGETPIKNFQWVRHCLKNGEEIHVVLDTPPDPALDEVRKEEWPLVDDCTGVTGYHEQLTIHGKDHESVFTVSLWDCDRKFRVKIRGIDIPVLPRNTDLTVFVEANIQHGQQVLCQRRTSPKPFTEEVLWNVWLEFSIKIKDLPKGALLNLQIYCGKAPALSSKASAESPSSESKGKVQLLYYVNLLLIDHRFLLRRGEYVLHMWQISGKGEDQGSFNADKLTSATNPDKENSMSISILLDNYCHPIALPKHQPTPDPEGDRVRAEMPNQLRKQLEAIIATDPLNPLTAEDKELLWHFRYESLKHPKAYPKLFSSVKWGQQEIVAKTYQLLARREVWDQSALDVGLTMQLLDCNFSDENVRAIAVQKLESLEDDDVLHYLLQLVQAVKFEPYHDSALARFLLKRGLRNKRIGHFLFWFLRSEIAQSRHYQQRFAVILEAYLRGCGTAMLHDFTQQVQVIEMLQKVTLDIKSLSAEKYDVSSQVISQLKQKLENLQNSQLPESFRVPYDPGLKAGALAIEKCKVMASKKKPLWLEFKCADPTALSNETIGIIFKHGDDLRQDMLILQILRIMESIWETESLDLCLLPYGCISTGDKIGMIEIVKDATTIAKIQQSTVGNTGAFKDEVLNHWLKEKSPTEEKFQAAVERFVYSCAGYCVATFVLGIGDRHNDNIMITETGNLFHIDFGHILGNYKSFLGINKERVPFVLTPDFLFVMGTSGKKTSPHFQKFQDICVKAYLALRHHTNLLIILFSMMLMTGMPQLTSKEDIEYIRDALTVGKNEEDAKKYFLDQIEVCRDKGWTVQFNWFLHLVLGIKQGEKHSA

T2 sequence (P42338 whole entry): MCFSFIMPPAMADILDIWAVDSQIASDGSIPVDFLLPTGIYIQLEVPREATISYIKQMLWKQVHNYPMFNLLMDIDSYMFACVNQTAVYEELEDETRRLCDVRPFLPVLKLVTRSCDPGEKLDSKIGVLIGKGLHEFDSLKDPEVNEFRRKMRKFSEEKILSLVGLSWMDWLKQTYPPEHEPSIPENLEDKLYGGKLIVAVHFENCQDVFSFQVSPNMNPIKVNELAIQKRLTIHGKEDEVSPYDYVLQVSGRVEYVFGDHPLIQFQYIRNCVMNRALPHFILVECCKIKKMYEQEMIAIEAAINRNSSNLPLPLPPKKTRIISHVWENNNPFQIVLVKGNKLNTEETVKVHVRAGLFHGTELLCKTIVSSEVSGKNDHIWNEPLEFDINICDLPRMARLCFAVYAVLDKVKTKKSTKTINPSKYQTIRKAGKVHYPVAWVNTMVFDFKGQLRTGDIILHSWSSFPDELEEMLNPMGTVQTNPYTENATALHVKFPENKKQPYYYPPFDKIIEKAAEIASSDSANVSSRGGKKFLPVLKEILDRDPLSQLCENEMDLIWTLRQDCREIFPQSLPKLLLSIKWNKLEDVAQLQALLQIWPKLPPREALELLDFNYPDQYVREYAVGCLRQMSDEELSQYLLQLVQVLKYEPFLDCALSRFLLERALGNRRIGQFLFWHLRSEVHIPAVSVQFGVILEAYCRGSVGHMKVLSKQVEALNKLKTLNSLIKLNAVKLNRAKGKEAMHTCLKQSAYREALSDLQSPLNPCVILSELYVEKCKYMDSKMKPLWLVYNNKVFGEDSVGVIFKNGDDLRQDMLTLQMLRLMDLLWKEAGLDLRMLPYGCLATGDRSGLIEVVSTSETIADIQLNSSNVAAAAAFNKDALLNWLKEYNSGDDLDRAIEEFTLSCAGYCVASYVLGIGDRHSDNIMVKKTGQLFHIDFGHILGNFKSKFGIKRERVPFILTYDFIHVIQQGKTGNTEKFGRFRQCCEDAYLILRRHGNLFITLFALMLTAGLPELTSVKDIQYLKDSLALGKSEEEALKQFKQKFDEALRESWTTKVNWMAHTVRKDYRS
T3 sequence (P42336 whole entry): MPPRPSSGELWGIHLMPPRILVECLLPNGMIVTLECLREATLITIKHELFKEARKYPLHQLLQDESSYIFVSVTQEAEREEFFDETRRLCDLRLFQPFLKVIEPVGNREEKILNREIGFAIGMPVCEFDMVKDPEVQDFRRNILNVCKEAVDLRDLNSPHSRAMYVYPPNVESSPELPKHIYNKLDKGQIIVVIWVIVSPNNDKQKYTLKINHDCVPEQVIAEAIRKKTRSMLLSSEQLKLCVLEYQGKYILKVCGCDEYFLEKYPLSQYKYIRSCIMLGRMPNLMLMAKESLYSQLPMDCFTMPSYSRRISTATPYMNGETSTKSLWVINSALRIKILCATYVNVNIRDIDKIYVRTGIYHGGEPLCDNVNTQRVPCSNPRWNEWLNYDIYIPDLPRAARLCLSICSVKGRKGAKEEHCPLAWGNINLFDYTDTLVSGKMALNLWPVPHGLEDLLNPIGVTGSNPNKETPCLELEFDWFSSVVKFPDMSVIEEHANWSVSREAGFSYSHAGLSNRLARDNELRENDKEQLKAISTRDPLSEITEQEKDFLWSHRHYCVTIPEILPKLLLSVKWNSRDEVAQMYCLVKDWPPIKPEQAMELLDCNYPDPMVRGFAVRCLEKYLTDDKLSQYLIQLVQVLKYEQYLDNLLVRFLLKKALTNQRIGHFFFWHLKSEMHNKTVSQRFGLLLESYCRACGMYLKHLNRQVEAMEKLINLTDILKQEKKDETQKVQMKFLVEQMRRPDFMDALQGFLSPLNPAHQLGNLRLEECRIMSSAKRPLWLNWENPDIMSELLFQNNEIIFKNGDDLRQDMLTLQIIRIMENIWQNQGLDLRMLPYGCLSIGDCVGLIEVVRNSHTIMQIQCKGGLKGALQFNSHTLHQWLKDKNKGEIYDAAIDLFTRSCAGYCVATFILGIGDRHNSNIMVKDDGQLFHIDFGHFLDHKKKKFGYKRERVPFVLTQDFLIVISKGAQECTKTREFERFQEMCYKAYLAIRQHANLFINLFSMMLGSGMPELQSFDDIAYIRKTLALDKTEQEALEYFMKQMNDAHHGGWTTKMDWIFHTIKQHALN

Structure (SMILES): CC(Nc1ncnc2[nH]cnc12)c1oc(=O)c2ccccc2c1-c1cn[nH]c1 (centres unmarked) [Example 122, 3-(1-(9H-purin-6-ylamino)ethyl)-4-(1H-pyrazol-4-yl)-1H-isochromen-1-one]
IC50 (PI3Kδ): < 10 nM
IC50 (PI3Kβ): 10 to 1000 nM
IC50 (PI3Kα): 10 to 1000 nM
IC50 (PI3Kγ): 10 to 1000 nM

Structure (SMILES): CC(c1oc(=O)c2ccccc2c1C1=CCN(C(=O)CCCN(C)C)CC1)n1nc(-c2cc(O)cc(F)c2)c2c(N)ncnc21 (centres unmarked) [Example 146, 3-(1-(4-amino-3-(3-fluoro-5-hydroxyphenyl)-1H-pyrazolo[3,4-d]pyrimidin-1-yl)ethyl)-4-(1-(4-(dimethylamino)butanoyl)-1,2,3,6-tetrahydropyridin-4-yl)-1H-isochromen-1-one formate]
IC50 (PI3Kδ): < 10 nM
IC50 (PI3Kβ): 10 to 1000 nM
IC50 (PI3Kα): > 1000 nM
IC50 (PI3Kγ): 10 to 1000 nM

Structure (SMILES): CC(c1oc(=O)c2ccccc2c1C1=CCNCC1)n1nc(-c2cc(O)cc(Cl)c2)c2c(N)ncnc21 (centres unmarked) [Example 152, 3-(1-(4-amino-3-(3-chloro-5-hydroxyphenyl)-1H-pyrazolo[3,4-d]pyrimidin-1-yl)ethyl)-4-(1,2,3,6-tetrahydropyridin-4-yl)-1H-isochromen-1-one formate]
IC50 (PI3Kδ): < 10 nM
IC50 (PI3Kβ): 10 to 1000 nM
IC50 (PI3Kα): 10 to 1000 nM
IC50 (PI3Kγ): 10 to 1000 nM

Structure (SMILES): CC(Nc1ncnc(N)c1C#N)c1oc(=O)c2ccccc2c1-c1cn[nH]c1 (centres unmarked) [Example 123, 4-amino-6-((1-(1-oxo-4-(1H-pyrazol-4-yl)-1H-isochromen-3-yl)ethyl)amino)pyrimidine-5-carbonitrile hydrochloride]
IC50 (PI3Kδ): 10 to 1000 nM
IC50 (PI3Kβ): 10 to 1000 nM
IC50 (PI3Kα): 10 to 1000 nM
IC50 (PI3Kγ): 10 to 1000 nM

Structure (SMILES): CC(c1oc(=O)c2ccccc2c1-c1ccccc1)n1nc(I)c2c(N)ncnc21 (centres unmarked) [Int D2, 3-(1-(4-Amino-3-iodo-1H-pyrazolo[3,4-d]pyrimidin-1-yl)ethyl)-4-phenyl-1H-isochromen-1-one]
IC50 (PI3Kδ): < 10 nM
IC50 (PI3Kβ): 10 to 1000 nM
IC50 (PI3Kα): > 1000 nM
IC50 (PI3Kγ): 10 to 1000 nM

Structure (SMILES): Nc1ncnc2c1c(-c1cncc(O)c1)nn2CC1=C(c2ccccc2)c2ccccc2CO1 [Example 129, 5-(4-amino-1-((4-phenyl-1H-isochromen-3-yl)methyl)-1H-pyrazolo[3,4-d]pyrimidin-3-yl)pyridin-3-ol]
IC50 (PI3Kδ): 10 to 1000 nM
IC50 (PI3Kβ): 10 to 1000 nM
IC50 (PI3Kα): 10 to 1000 nM
IC50 (PI3Kγ): > 1000 nM

Structure (SMILES): CC(Nc1ncnc2[nH]cnc12)c1oc(=O)c2ccccc2c1-c1cncs1 (centres unmarked) [Example 117, 3-(1-(9H-purin-6-ylamino)ethyl)-4-(thiazol-5-yl)-1H-isochromen-1-one]
IC50 (PI3Kδ): < 10 nM
IC50 (PI3Kβ): > 1000 nM
IC50 (PI3Kα): 10 to 1000 nM
IC50 (PI3Kγ): 10 to 1000 nM

Structure (SMILES): CC(=O)Nc1ncc(-c2nn(C(C)c3oc(=O)c4ccccc4c3-c3ccccc3)c3ncnc(N)c23)s1 (centres unmarked) [Example 62, N-(5-(4-amino-1-(1-(1-oxo-4-phenyl-1H-isochromen-3-yl)ethyl)-1H-pyrazolo[3,4-d]pyrimidin-3-yl)thiazol-2-yl)acetamide]
IC50 (PI3Kδ): < 10 nM
IC50 (PI3Kβ): 10 to 1000 nM
IC50 (PI3Kα): 10 to 1000 nM
IC50 (PI3Kγ): 10 to 1000 nM

Structure (SMILES): CC(c1oc(=O)c2ccccc2c1C1=CCN(C)CC1)n1nc(-c2cncc(O)c2)c2c(N)ncnc21 (centres unmarked) [Example 175, 3-(1-(4-amino-3-(5-hydroxypyridin-3-yl)-1H-pyrazolo[3,4-d]pyrimidin-1-yl)ethyl)-4-(1-methyl-1,2,3,6-tetrahydropyridin-4-yl)-1H-isochromen-1-one hydrochloride]
IC50 (PI3Kδ): < 10 nM
IC50 (PI3Kβ): < 10 nM
IC50 (PI3Kα): 10 to 1000 nM
IC50 (PI3Kγ): 10 to 1000 nM

Results, then the molecule that gave them:

IC50 (PI3Kδ): < 10 nM
IC50 (PI3Kβ): 10 to 1000 nM
IC50 (PI3Kα): 10 to 1000 nM
IC50 (PI3Kγ): 10 to 1000 nM
Structure (SMILES): COc1ccc(-c2nn(C(C)c3oc(=O)c4ccccc4c3-c3ccccc3)c3ncnc(N)c23)cn1 (centres unmarked) [Example 60, 3-(1-(4-amino-3-(6-methoxypyridin-3-yl)-1H-pyrazolo[3,4-d]pyrimidin-1-yl)ethyl)-4-phenyl-1H-isochromen-1-one]

IC50 (PI3Kδ): < 10 nM
IC50 (PI3Kβ): 10 to 1000 nM
IC50 (PI3Kα): 10 to 1000 nM
IC50 (PI3Kγ): 10 to 1000 nM
Structure (SMILES): CC(c1oc(=O)c2ccccc2c1C1=CCCN(C)C1)n1nc(-c2cc(O)cc(F)c2)c2c(N)ncnc21 (centres unmarked) [Example 63, 3-(1-(4-amino-3-(3-fluoro-5-hydroxyphenyl)-1H-pyrazolo[3,4-d]pyrimidin-1-yl)ethyl)-4-(1-methyl-1,2,5,6-tetrahydropyridin-3-yl)-1H-isochromen-1-one hydrochloride]

IC50 (PI3Kδ): 10 to 1000 nM
IC50 (PI3Kβ): > 1000 nM
IC50 (PI3Kα): 10 to 1000 nM
IC50 (PI3Kγ): > 1000 nM
Structure (SMILES): CC(c1oc(=O)c2ccccc2c1-c1ccccc1)n1nc2ncnc(N)c2c1-c1cc(O)cc(F)c1 (centres unmarked) [Example 118, 3-(1-(4-amino-3-(3-fluoro-5-hydroxyphenyl)-2H-pyrazolo[3,4-d]pyrimidin-2-yl)ethyl)-4-phenyl-1H-isochromen-1-one]

IC50 (PI3Kδ): < 10 nM
IC50 (PI3Kβ): 10 to 1000 nM
IC50 (PI3Kα): 10 to 1000 nM
IC50 (PI3Kγ): 10 to 1000 nM
Structure (SMILES): CC(c1oc(=O)c2ccccc2c1-c1ccc(CN2CCCCC2)s1)n1nc(-c2cc(O)cc(F)c2)c2c(N)ncnc21 (centres unmarked) [Example 68, 3-(1-(4-amino-3-(3-fluoro-5-hydroxyphenyl)-1H-pyrazolo[3,4-d]pyrimidin-1-yl)ethyl)-4-(5-(piperidin-1-ylmethyl)thiophen-2-yl)-1H-isochromen-1-one hydrochloride]

IC50 (PI3Kδ): < 10 nM
IC50 (PI3Kβ): 10 to 1000 nM
IC50 (PI3Kα): > 1000 nM
IC50 (PI3Kγ): 10 to 1000 nM
Structure (SMILES): CC(c1oc(=O)c2ccc(F)cc2c1-c1ccccc1)n1nc(-c2cc(O)cc(F)c2)c2c(N)ncnc21 (centres unmarked) [Example 165, 3-(1-(4-amino-3-(3-fluoro-5-hydroxyphenyl)-1H-pyrazolo[3,4-d]pyrimidin-1-yl)ethyl)-6-fluoro-4-phenyl-1H-isochromen-1-one]

IC50 (PI3Kδ): < 10 nM
IC50 (PI3Kβ): 10 to 1000 nM
IC50 (PI3Kα): > 1000 nM
IC50 (PI3Kγ): > 1000 nM
Structure (SMILES): CC(c1oc(=O)c2ccccc2c1-c1ccc(CCCN(C)C)s1)n1nc(-c2cc(O)cc(F)c2)c2c(N)ncnc21 (centres unmarked) [Example 136, 3-(1-(4-amino-3-(3-fluoro-5-hydroxyphenyl)-1H-pyrazolo[3,4-d]pyrimidin-1-yl)ethyl)-4-(5-(3-(dimethylamino)propyl)thiophen-2-yl)-1H-isochromen-1-one, Formate]

IC50 (PI3Kδ): < 10 nM
IC50 (PI3Kβ): 10 to 1000 nM
IC50 (PI3Kα): 10 to 1000 nM
IC50 (PI3Kγ): 10 to 1000 nM
Structure (SMILES): CC(c1oc(=O)c2ccccc2c1-c1ccccc1)n1nc(-c2cnc(N)s2)c2c(N)ncnc21 (centres unmarked) [Example 59, 3-(1-(4-amino-3-(2-aminothiazol-5-yl)-1H-pyrazolo[3,4-d]pyrimidin-1-yl)ethyl)-4-phenyl-1H-isochromen-1-one hydrochloride]

IC50 (PI3Kδ): 10 to 1000 nM
IC50 (PI3Kβ): 10 to 1000 nM
IC50 (PI3Kα): 10 to 1000 nM
IC50 (PI3Kγ): 10 to 1000 nM
Structure (SMILES): CC(C)N1CCC=C(c2c(C(C)n3nc(-c4cc(O)cc(F)c4)c4c(N)ncnc43)oc(=O)c3ccccc23)C1 (centres unmarked) [Example 174, 3-(1-(4-amino-3-(3-fluoro-5-hydroxyphenyl)-1H-pyrazolo[3,4-d]pyrimidin-1-yl)ethyl)-4-(1-isopropyl-1,2,5,6-tetrahydropyridin-3-yl)-1H-isochromen-1-one hydrochloride]

IC50 (PI3Kδ): < 10 nM
IC50 (PI3Kβ): 10 to 1000 nM
IC50 (PI3Kα): 10 to 1000 nM
IC50 (PI3Kγ): 10 to 1000 nM
Structure (SMILES): CC(=O)N1CC=C(c2c(C(C)n3nc(-c4cc(O)cc(F)c4)c4c(N)ncnc43)oc(=O)c3ccccc23)CC1 (centres unmarked) [Example 72, 4-(1-acetyl-1,2,3,6-tetrahydropyridin-4-yl)-3-(1-(4-amino-3-(3-fluoro-5-hydroxyphenyl)-1H-pyrazolo[3,4-d]pyrimidin-1-yl)ethyl)-1H-isochromen-1-one]

IC50 (PI3Kδ): 10 to 1000 nM
IC50 (PI3Kβ): > 1000 nM
IC50 (PI3Kα): > 1000 nM
IC50 (PI3Kγ): 10 to 1000 nM
Structure (SMILES): CC(c1oc(=O)c2ccccc2c1-c1cccc(N(C)C)c1)n1nc(-c2cc(O)cc(F)c2)c2c(N)ncnc21 (centres unmarked) [Example 119, 3-(1-(4-amino-3-(3-fluoro-5-hydroxyphenyl)-1H-pyrazolo[3,4-d]pyrimidin-1-yl)ethyl)-4-(3-(dimethylamino)phenyl)-1H-isochromen-1-one]

IC50 (PI3Kδ): < 10 nM
IC50 (PI3Kβ): 10 to 1000 nM
IC50 (PI3Kα): 10 to 1000 nM
IC50 (PI3Kγ): 10 to 1000 nM
Structure (SMILES): CC(c1oc(=O)c2ccccc2c1C1=CCN(Cc2ccncc2)CC1)n1nc(-c2cc(O)cc(F)c2)c2c(N)ncnc21 (centres unmarked) [Example 65, 3-(1-(4-amino-3-(3-fluoro-5-hydroxyphenyl)-1H-pyrazolo[3,4-d]pyrimidin-1-yl)ethyl)-4-(1-(pyridin-4-ylmethyl)-1,2,3,6-tetrahydropyridin-4-yl)-1H-isochromen-1-one hydrochloride]
